# Legend:
# Experiment in all cases: biochemical
# Parameters in all cases: DiscoveRx KINOMEscan competition binding, percent of DMSO control signal at 100 nM
# Conditions in all cases: read-out: Fig. 4a / Percent Control / Compound 1; percent of DMSO control, competition binding
# [1] = target: T1, ARK5 (Homo sapiens, UniProt O60285)
# T1 construct: gene NUAK1
# [2] = target: CDK4 (Homo sapiens, UniProt P11802)
# [3] = target: DDR1 (Homo sapiens, UniProt Q08345)
# [4] = target: MARK4 (Homo sapiens, UniProt Q96L34)
# Sequence of MARK4 (Q96L34 whole entry): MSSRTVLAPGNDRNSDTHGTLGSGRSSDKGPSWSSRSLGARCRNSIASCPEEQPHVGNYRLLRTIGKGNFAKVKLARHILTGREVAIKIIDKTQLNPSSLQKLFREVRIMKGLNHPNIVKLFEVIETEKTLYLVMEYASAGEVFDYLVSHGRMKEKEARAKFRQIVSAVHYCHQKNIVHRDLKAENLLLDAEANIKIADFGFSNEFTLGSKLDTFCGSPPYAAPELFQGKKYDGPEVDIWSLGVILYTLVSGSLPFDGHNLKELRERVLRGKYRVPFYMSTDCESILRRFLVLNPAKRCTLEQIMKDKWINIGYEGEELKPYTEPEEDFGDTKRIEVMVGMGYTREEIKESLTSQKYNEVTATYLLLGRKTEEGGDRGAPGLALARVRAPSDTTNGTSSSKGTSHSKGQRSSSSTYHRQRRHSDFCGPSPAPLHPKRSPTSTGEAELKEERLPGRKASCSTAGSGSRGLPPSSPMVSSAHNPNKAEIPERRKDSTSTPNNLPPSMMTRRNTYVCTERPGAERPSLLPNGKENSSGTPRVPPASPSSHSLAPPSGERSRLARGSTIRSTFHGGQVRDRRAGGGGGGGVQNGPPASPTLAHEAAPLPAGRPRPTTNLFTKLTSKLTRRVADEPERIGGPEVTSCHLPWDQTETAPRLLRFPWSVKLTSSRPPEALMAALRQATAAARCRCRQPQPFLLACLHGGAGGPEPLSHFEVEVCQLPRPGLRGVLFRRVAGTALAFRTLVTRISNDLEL
# [5] = target: PRKCQ (Homo sapiens, UniProt Q04759)
# Sequence of PRKCQ (Q04759 whole entry): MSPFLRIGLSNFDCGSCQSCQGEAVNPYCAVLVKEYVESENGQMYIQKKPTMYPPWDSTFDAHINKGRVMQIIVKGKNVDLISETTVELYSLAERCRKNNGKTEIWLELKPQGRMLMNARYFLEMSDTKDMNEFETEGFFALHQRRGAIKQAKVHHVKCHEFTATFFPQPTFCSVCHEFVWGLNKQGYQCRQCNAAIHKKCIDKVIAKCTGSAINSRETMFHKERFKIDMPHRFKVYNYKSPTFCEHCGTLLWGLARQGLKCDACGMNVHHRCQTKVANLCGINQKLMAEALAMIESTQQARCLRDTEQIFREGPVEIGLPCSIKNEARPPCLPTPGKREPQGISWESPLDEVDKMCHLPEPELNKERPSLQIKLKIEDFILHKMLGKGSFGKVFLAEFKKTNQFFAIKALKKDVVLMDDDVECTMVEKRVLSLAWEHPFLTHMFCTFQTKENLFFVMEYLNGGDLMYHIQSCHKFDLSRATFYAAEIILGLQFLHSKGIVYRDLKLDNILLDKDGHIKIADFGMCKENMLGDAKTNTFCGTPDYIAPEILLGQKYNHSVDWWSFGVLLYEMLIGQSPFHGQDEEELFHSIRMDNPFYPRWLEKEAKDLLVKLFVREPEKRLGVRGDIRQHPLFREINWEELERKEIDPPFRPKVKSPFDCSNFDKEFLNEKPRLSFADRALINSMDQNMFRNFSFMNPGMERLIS
# [6] = target: RAF1 (Homo sapiens, UniProt P04049)
# Sequence of RAF1 (P04049 whole entry): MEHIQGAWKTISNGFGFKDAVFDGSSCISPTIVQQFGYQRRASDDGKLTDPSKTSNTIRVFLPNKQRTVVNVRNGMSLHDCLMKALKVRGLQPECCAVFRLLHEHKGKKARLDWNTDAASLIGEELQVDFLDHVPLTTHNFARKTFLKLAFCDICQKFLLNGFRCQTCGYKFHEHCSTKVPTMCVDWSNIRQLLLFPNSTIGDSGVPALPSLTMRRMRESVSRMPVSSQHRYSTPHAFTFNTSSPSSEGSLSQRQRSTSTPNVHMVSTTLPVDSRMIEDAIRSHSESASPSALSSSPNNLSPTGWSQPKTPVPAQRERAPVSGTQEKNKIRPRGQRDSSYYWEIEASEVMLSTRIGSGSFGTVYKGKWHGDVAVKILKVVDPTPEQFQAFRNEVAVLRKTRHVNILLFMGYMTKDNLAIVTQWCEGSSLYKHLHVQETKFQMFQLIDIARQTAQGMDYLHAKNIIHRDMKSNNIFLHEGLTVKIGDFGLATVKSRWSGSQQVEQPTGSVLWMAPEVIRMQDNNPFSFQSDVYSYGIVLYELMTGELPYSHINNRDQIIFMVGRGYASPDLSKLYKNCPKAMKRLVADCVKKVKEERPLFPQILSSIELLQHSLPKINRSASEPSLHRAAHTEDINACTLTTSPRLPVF
# 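Also: KINOMEscan kinase panel binding assay, signal normalized between DMSO as 100% and a positive control compound as 0%.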
# Sequence of DDR1 (Q08345 whole entry): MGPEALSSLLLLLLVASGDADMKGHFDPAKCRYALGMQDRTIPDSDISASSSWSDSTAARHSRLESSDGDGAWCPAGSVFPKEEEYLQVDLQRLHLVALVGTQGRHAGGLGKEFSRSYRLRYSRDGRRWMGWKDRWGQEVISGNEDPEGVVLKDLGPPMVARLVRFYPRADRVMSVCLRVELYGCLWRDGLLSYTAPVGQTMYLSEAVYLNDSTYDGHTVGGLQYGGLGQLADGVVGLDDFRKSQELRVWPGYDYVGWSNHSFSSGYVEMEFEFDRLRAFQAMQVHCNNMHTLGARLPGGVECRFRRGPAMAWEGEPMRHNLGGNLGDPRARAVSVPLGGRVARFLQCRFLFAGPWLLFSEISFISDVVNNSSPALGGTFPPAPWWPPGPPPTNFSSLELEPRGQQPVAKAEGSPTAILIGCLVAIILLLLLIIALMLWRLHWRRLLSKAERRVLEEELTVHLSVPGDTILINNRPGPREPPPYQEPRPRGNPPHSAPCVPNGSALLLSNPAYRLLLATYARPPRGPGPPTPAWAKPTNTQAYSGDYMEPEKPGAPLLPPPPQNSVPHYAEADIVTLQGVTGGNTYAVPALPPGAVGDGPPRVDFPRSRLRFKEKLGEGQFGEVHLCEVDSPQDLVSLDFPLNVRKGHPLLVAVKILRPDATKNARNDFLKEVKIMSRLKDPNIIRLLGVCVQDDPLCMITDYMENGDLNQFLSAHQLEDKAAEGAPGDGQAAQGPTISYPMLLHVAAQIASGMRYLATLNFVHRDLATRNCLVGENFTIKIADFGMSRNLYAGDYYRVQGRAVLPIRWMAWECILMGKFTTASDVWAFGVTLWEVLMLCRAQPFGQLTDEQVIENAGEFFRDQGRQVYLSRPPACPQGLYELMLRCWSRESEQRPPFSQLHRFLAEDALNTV
# T1 sequence (O60285 whole entry): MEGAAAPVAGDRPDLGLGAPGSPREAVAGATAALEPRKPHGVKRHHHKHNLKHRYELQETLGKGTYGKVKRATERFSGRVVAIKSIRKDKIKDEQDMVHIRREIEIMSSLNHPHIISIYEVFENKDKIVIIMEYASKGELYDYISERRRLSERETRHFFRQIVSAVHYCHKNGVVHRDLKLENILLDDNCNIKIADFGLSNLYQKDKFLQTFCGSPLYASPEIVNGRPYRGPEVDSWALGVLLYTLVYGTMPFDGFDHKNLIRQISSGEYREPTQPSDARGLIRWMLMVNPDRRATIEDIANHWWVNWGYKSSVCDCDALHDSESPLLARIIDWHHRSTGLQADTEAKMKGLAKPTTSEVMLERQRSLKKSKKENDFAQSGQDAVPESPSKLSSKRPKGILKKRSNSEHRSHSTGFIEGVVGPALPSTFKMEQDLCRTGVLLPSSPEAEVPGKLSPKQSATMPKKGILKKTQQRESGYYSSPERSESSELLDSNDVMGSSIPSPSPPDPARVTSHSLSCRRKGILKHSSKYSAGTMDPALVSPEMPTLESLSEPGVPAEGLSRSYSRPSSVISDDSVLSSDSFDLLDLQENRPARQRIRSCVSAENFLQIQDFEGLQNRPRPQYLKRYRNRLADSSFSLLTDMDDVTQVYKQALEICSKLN
# Sequence of CDK4 (P11802 whole entry): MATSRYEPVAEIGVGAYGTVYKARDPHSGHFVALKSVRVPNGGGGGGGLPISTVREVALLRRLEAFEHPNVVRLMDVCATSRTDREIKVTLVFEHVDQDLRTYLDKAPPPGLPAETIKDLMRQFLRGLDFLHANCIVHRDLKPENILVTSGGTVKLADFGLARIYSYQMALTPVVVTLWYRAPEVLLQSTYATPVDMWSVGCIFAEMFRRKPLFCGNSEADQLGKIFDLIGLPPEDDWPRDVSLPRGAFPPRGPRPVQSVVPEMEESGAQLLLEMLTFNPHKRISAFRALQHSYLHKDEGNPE
compound,measurement,setting,value
Cc1cnc2nc1Nc1cccc(c1)COCc1cc(ccc1OCCN1CCCC1)N2 [Compound 1],remaining binding at 0.1 µM,[1],51%
same,remaining binding at 0.1 µM,[2],96%
same,remaining binding at 0.1 µM,[3],93%
same,remaining binding at 0.1 µM,[4],77%
same,remaining binding at 0.1 µM,[5],100%
same,remaining binding at 0.1 µM,[6],98%
